This is an account of results in patent US8178077B2, “Drug development target protein and target gene, and method of screening” (Reverse Proteomics Research Institute Co., Ltd., priority 2004, dated 2012).

This experiment concerns the target T1, FLJ39196 clone-derived protein (human neurocalcin δ) (Homo sapiens, UniProt P61601).
T1 construct: A human full-length cDNA clone was expressed as a protein with an N-terminal His tag; His tag (N); made in house; host or cells: Escherichia coli BL21star(DE3)pLysS (pDEST17 Gateway expression plasmid)
The experiment in a line: SEC/MS interaction analysis (size exclusion spin column and mass analysis) with FLJ39196 clone-derived protein. In kind it is binding. An excerpt:
To analyze the interactions between commonly used drugs and proteins expressed from human full-length cDNA clones while keeping both the proteins and the compounds in non-modified, non-immobilized state, size exclusion chromatography (SEC) and mass analysis were used in combination (FIGS. 1, 2). The specific procedures are shown below.
The compound-protein mixture prepared in step 1 was subjected to chromatography using an SEC column, the compound and the protein were separated by SEC, and the compound that interacted with the bound compound or protein contained in the protein fraction was analyzed using a mass analyzer.
Protein concentrations were measured using BCA Protein Assay (PIERCE), in consideration of the purity calculated by SDS-PAGE.
Mass analysis was performed using LCQ DECA XP (Thermoelectron) or Q-TOFmicro (Micromass), equipped with an ESI probe. The LC pump used was Agilent 1100 (Yokogawa Analytical Systems), and the autosampler used was HTC-PAL (CTC Analytics) equipped with a cooling stacker.
In the SEC method using 384-well spin columns, Unifilter 100 (Whatman), packed with 10 μL (dry volume) of Bio-Gel P6 (BIO-RAD) and swollen with milliQ water, was used as the SEC column. 13.3 μL of a protein-free reference standard or a 25 μM protein standard and 0.7 μL of a multiplied liquid comprising 25 μM of each pharmaceutical compound (5% DMSO aqueous solution) were mixed; 9 μL of this mixture was aliquoted into the SEC spin columns. The SEC spin column was mounted on an acetonitrile-aliquoted 384-well U-bottom plate and centrifuged; the SEC spin column filtrate, which is a protein fraction, was retrieved in 50% acetonitrile. The protein precipitate produced by the acetonitrile was removed via centrifugation and filtration for deproteinization; the resulting filtrate was concentrated by centrifugation and re-dissolved in 10 μL of 50% methanol to obtain a mass analysis sample. The mobile phase supplied to the mass analyzer was 0.1% formic acid/50% methanol solution in the positive ion mode, and 0.1% ammonia/50% methanol solution in the negative ion mode; these mobile phases were used at a flow rate of 40 μL/min. 2-μL of mass analysis samples were injected using an autosampler at 2-minute intervals; the mass spectral intensity of the compound was measured to obtain the spectral intensity of the pharmaceutical compound contained in the SEC spin column filtrate (protein fraction eluted from SEC).
In general terms: In gel filtration, larger molecules generally elute earlier.

The mark [1] stands for this setting: protein 0 μM (protein-free reference), compound 1 μM.
Where [2] appears, read: protein 0 μM (protein-free reference), compound 10 μM.
Setting [3] is: protein 0 μM (protein-free reference), compound 100 μM.
[4] abbreviates: protein 0 μM (protein-free reference), compound 250 μM.
Where [5] appears, read: protein 23.75 μM, compound 1 μM.
The mark [6] stands for this setting: protein 23.75 μM, compound 10 μM.
[7] abbreviates: protein 23.75 μM, compound 100 μM.
The mark [8] stands for this setting: protein 23.75 μM, compound 250 μM.
[9] abbreviates: protein 47.5 μM, compound 10 μM.
The mark [10] stands for this setting: protein 47.5 μM, compound 100 μM.
[11] abbreviates: protein 47.5 μM, compound 250 μM.

With `C[C@]12Cc3c[nH]nc3C[C@@H]1CC[C@@H]1[C@@H]2CC[C@@]2(C)[C@H]1CC[C@]2(C)O` [stanozolol], the “spectral intensity of the compound in the SEC spin column filtrate (protein fraction)” value (“spectral intensity … (protein fraction)” below) is 3108300 under setting [1]; 2749518 under setting [2]; 3830491 under setting [3]; 4150230 under setting [4]; 3620481 under setting [5]; 10223886 under setting [6]. For the same compound, the “spectral intensity … (protein fraction)” value is given as 127989356 under setting [7]; 194560574 under setting [8]; 3989532 (protein 47.5 μM, compound 1 μM); 25533379 under setting [9]; 619287498 under setting [10]; 778914733 under setting [11].

As to `CCc1oc2ccccc2c1C(=O)c1cc(Br)c(O)c(Br)c1` [Benzbromarone], the “spectral intensity … (protein fraction)” value runs as follows: under setting [1], 231212; under setting [2], 300847; under setting [3], 378850; under setting [4], 461737; under setting [5], 357666; under setting [6], 1258120. In addition, the “spectral intensity … (protein fraction)” value under setting [7] was found to be 10722991; the “spectral intensity … (protein fraction)” value under setting [8] is listed as 19795682; the “spectral intensity … (protein fraction)” value (protein 47.5 μM, compound 1 μM) stood at 412022; the “spectral intensity … (protein fraction)” value under setting [9] is recorded as 1942184; the “spectral intensity … (protein fraction)” value under setting [10] is reported as 29076230; the “spectral intensity … (protein fraction)” value under setting [11] is on record as 43413619.

For the compound `CCOC(=O)Oc1c(OC)cc(C(=O)O[C@@H]2C[C@@H]3CN4CCc5c([nH]c6cc(OC)ccc56)[C@H]4C[C@@H]3[C@H](C(=O)OC)[C@H]2OC)cc1OC` [Syrosingopine], the “spectral intensity … (protein fraction)” value is given as 38126829 under setting [1]; 47209784 under setting [2]; 41362697 under setting [3]; 38512184 under setting [4]; 63594361 under setting [5]; 101347281 under setting [6]. In addition, the “spectral intensity … (protein fraction)” value is, setting by setting: under setting [7], 465474678; under setting [8], 596250311; (protein 47.5 μM, compound 1 μM) 70443152; under setting [9], 105524442; under setting [10], 897067633; under setting [11], 1499127775.

As for `Cc1cc(-c2ccccc2)nnc1NCCN1CCOCC1` [Minaprine], the “spectral intensity … (protein fraction)” value by setting is: under setting [1], 15652447; under setting [2], 95722839; under setting [3], 530918568; under setting [4], 1025547751; under setting [5], 10946604; under setting [6], 88615018. The “spectral intensity … (protein fraction)” value under setting [7] was determined as 727082711; the “spectral intensity … (protein fraction)” value under setting [8] is recorded as 1272226745; the “spectral intensity … (protein fraction)” value (protein 47.5 μM, compound 1 μM) was determined as 10185140; the “spectral intensity … (protein fraction)” value under setting [9] turned out to be 49245292; the “spectral intensity … (protein fraction)” value under setting [10] is reported as 427303459; the “spectral intensity … (protein fraction)” value under setting [11] was found to be 1448860391.

On to `CN1CCC(=C2c3ccccc3Sc3ccccc32)CC1` [Pimethixene], for which the “spectral intensity … (protein fraction)” value is, setting by setting: under setting [1], 2913965; under setting [2], 4868887; under setting [3], 58800844; under setting [4], 224525009; under setting [5], 2449690; under setting [6], 5737072. Moreover, the “spectral intensity … (protein fraction)” value is recorded as 121577640 under setting [7]; 265475649 under setting [8]; 2762592 (protein 47.5 μM, compound 1 μM); 9271060 under setting [9]; 197624997 under setting [10]; 359356100 under setting [11].

Regarding `OCCN1CCN(CC/C=C2/c3ccccc3Sc3ccc(C(F)(F)F)cc32)CC1` [Flupentixol cis-(Z)], the “spectral intensity … (protein fraction)” value is listed as 57845690 under setting [1]; 59201705 under setting [2]; 138331819 under setting [3]; 1019443291 under setting [4]; 38801184 under setting [5]; 66148127 under setting [6]. In addition, the “spectral intensity … (protein fraction)” value worked out at 474717521 under setting [7]; 1437323119 under setting [8]; 54783295 (protein 47.5 μM, compound 1 μM); 82852252 under setting [9]; 1301876646 under setting [10]; 1766098462 under setting [11].
